Measurements reported in ChEMBL document CHEMBL4680350, “Novel penta-1,4-diene-3-one derivatives containing quinazoline and oxime ether fragments: Design, synthesis and bioactivity” (Bioorg Med Chem, 2021).
The source made the active and inactive calls. No cut-off for these calls is given here.

Tests used:
SMMC-7721 [1] = assay: Anticancer activity against human SMMC-7721 cells assessed as inhibition of cell proliferation at 1 uM measured after 72 hrs by MTT assay; type: functional
SMMC-7721 [2] = assay: Anticancer activity against human SMMC-7721 cells assessed as inhibition of cell proliferation at 10 uM measured after 72 hrs by MTT assay; type: functional
SMMC-7721 [3] = assay: Anticancer activity against human SMMC-7721 cells assessed as inhibition of cell proliferation measured after 72 hrs by MTT assay; type: functional, cell-based; details: SMMC-7721, 72 h
SMMC-7721 [4] = assay: Antimigratory activity against human SMMC-7721 cells assessed as inhibition of cell migration measured after 12 hrs by cell scratch assay; type: functional, cell-based
SMMC-7721 [5] = assay: Induction of cell cycle arrest in human SMMC-7721 cells assessed as accumulation of cells at […] measured after 24 hrs by flow cytometry; type: functional, cell-based
SMMC-7721 [6] = assay: Induction of apoptosis in human SMMC-7721 cells assessed as increase in PARP-1 level t 1 to 20 uM incubated for 48 hrs by Western blot analysis; type: functional, cell-based; details: dose 1-20 µM
SMMC-7721 [7] = assay: Antimigratory activity against human SMMC-7721 cells assessed as inhibition of cell migration at 10 uM measured after 12 hrs by cell scratch assay; type: functional, cell-based
SMMC-7721 [8] = assay: Induction of apoptosis in human SMMC-7721 cells assessed as increase in caspase 3 level upto 20 uM incubated for 48 hrs by Western blot analysis; type: functional, cell-based; details: dose microM <=20, time 48.0 hrs
SMMC-7721 [9] = assay: Cytotoxicity against human SMMC-7721 cells assessed as change in cell morphology at 1 uM incubated for 24 hrs; type: functional, cell-based
SMMC-7721 [10] = assay: Cytotoxicity against human SMMC-7721 cells assessed as change in cell morphology at 10 uM incubated for 48 hrs; type: functional, cell-based
SMMC-7721 [11] = assay: Induction of cell cycle arrest in human SMMC-7721 cells assessed as accumulation of cells at G2/M measured after 24 hrs by flow cytometry; type: functional, cell-based
SMMC-7721 [12] = assay: Induction of apoptosis in human SMMC-7721 cells at 5 uM measured after 48 hrs by annexin V-FITC/PI based flow cytometric analysis relative to control; type: functional
SMMC-7721 [13] = assay: Induction of apoptosis in human SMMC-7721 cells assessed as decrease in PARP-1 level t 10 to 20 uM incubated for 48 hrs by Western blot analysis; type: functional, cell-based; details: dose 10-20 µM
SMMC-7721 [14] = assay: Induction of apoptosis in human SMMC-7721 cells as late apoptotic cells at 5 uM measured after 48 hrs by annexin V-FITC/PI based flow cytometric analysis relative to control; type: functional
SMMC-7721 [15] = assay: Induction of apoptosis in human SMMC-7721 cells at 1 uM measured after 48 hrs by annexin V-FITC/PI based flow cytometric analysis relative to control; type: functional
SMMC-7721 [16] = assay: Induction of apoptosis in human SMMC-7721 cells assessed as increase in PARP-1 level t 1 to 5 uM incubated for 48 hrs by Western blot analysis; type: functional, cell-based; details: dose 1-5 µM
SMMC-7721 [17] = assay: Induction of apoptosis in human SMMC-7721 cells as late apoptotic cells at 20 uM measured after 48 hrs by annexin V-FITC/PI based flow cytometric analysis relative to control; type: functional

SMILES	inhibition at 1 µM (SMMC-7721 [1]) [%]	inhibition at 10 µM (SMMC-7721 [2]) [%]	also measured
Clc1ccc(COc2ccc(/C=C/C(/C=C/c3ccccn3)=N/Oc3ncnc4ccccc34)cc2)cc1	91.2	94.4	
Clc1ccc2c(O/N=C(\C=C\c3ccccn3)/C=C/c3ccccc3OCc3ccccc3Cl)ncnc2c1	94.8	94.5	
Cc1cccc2ncnc(O/N=C(\C=C\c3ccccn3)/C=C/c3ccccc3OCc3ccc(Cl)cc3)c12	93.4	94.5	
Clc1ccc2c(O/N=C(/C=C/c3ccc(OCc4ccccc4Cl)cc3)\C=C\c3ccccn3)ncnc2c1	18.1	84.7	
Clc1ccc(COc2ccc(/C=C/C(/C=C/c3cccs3)=N/Oc3ncnc4ccccc34)cc2)cc1	89.3	97.5	
Clc1ccc(COc2ccccc2/C=C/C(/C=C/c2ccccn2)=N/Oc2ncnc3ccccc23)c(Cl)c1	33.3	87.5	IC50 (SMMC-7721 [3]): 8.55 µM; Activity (SMMC-7721 [4]): inactive; Activity (SMMC-7721 [5]): Active; Activity (SMMC-7721 [6]): Active; Activity (SMMC-7721 [7]): inactive; Activity (SMMC-7721 [8]): Active
Clc1ccccc1COc1ccccc1/C=C/C(/C=C/c1ccccn1)=N/Oc1ncnc2ccccc12	95.7	96	
Fc1ccccc1COc1ccc(/C=C/C(/C=C/c2ccccn2)=N/Oc2ncnc3cc(Cl)ccc23)cc1	81.1	91.2	
Fc1ccccc1COc1ccccc1/C=C/C(/C=C/c1ccccn1)=N/Oc1ncnc2cc(Cl)ccc12	94.2	94.8	Activity (SMMC-7721 [9]): Active; Activity (SMMC-7721 [10]): Active
Cc1cccc(COc2ccc(/C=C/C(/C=C/c3ccccn3)=N/Oc3ncnc4ccccc34)cc2)c1	69.2	97.5	IC50 (SMMC-7721 [3]): 0.64 µM; Activity (SMMC-7721 [11]): Active; Activity (SMMC-7721 [4]): inactive; Activity (SMMC-7721 [9]): Active; Activity (SMMC-7721 [10]): Active; Activity (SMMC-7721 [12]): 99.9%; Activity (SMMC-7721 [13]): Active; Activity (SMMC-7721 [14]): 99.4%; Activity (SMMC-7721 [7]): inactive; Activity (SMMC-7721 [15]): 23%; Activity (SMMC-7721 [16]): Active; Activity (SMMC-7721 [8]): Active
Clc1ccc(COc2ccc(/C=C/C(/C=C/c3ccccn3)=N/Oc3ncnc4ccccc34)cc2)c(Cl)c1		89.6	
Nc1ccn([C@@H]2O[C@H](CO)[C@@H](O)C2(F)F)c(=O)n1 [GEMCITABINE]	38.5	61.5	IC50 (SMMC-7721 [3]): 1.4 µM
Cc1cccc2ncnc(O/N=C(\C=C\c3ccccn3)/C=C/c3ccccc3OCc3ccccc3Cl)c12	86.8	95.7	
Clc1ccc(COc2ccc(/C=C/C(/C=C/c3ccccn3)=N/Oc3ncnc4cc(Cl)ccc34)cc2)cc1	67.4	88.1	IC50 (SMMC-7721 [3]): 0.63 µM; Activity (SMMC-7721 [11]): Active; Activity (SMMC-7721 [4]): inactive; Activity (SMMC-7721 [9]): Active; Activity (SMMC-7721 [6]): Active; Activity (SMMC-7721 [10]): Active; Activity (SMMC-7721 [7]): inactive; Activity (SMMC-7721 [17]): 88%; Activity (SMMC-7721 [8]): Active
Cc1cccc(COc2ccc(/C=C/C(/C=C/c3ccccn3)=N/Oc3ncnc4cc(Cl)ccc34)cc2)c1	78.6	95.6	
Clc1ccccc1COc1ccc(/C=C/C(/C=C/c2ccccn2)=N/Oc2ncnc3ccccc23)cc1	10.1	96.9	
Cc1cccc2ncnc(O/N=C(\C=C\c3ccccn3)/C=C/c3ccccc3OCc3ccc(Cl)cc3Cl)c12	90.8	93.9	
Clc1ccc(COc2ccc(/C=C/C(/C=C/c3ccccn3)=N/Oc3ncnc4cc(Cl)ccc34)cc2)c(Cl)c1		23.6	
Clc1ccc(COc2ccccc2/C=C/C(/C=C/c2ccccn2)=N/Oc2ncnc3cc(Cl)ccc23)c(Cl)c1	23.6	91.8	IC50 (SMMC-7721 [3]): 10.4 µM; Activity (SMMC-7721 [11]): Active; Activity (SMMC-7721 [4]): inactive; Activity (SMMC-7721 [7]): inactive; Activity (SMMC-7721 [8]): Active
Cc1cccc(COc2ccc(/C=C/C(/C=C/c3ccccn3)=N/Oc3ncnc4cccc(C)c34)cc2)c1	93.4	97	
Cc1cccc2ncnc(O/N=C(/C=C/c3ccc(OCc4ccccc4Cl)cc3)\C=C\c3ccccn3)c12	77	84.7	
Clc1ccc(COc2ccccc2/C=C/C(/C=C/c2ccccn2)=N/Oc2ncnc3cc(Cl)ccc23)cc1	94	94.8	
